Experimental data published in patent publication US20240307351A1, “AGENT FOR ANTI-AGING OR FOR CELLULAR REJUVENATION” (TOHOKU UNIVERSITY, priority 2022, published 2024).

Experiments:
[1] = system: muscle cells of young mice; experiment: RNA-Seq, pathway and ChIP-Atlas analysis of muscle cells of young mice; format: in vivo, mouse; conditions: oral, 50 mg/kg/day, 2 months
Method: Water-suspended Compound #5 was orally administered to C57BL6 mice (12 weeks old) at a dose of 50 mg/kg/day per kg of mouse weight for 2 months ([MA5 addition group], n=5). After 2 months of oral administration, the mice were 20 weeks old.
In addition, water was orally administered to C57BL6 mice (12 weeks old) for 2 months ([Vehicle group], n=5). After 2 months of oral administration, the mice were 20 weeks old.
RNA sequencing (RNA-Seq) analysis was performed on the muscle cells of the young mice in [MA5 addition group] and [Vehicle group] to identify genes whose expression levels changed (increased or decreased) in [MA5 addition group] and [Vehicle group] compared to the muscle cells of young mice before administration. The results are illustrated in FIG. 16.
Based on the names of genes whose expression levels increased or decreased in the young mice of [MA5 addition group] as compared with the young mice of [Vehicle group] in the RNA sequence (RNA-Seq) analysis, pathway analysis of genes whose expression levels varied in [MA5 addition group] was performed. The results are illustrated in FIG. 17. […]

[2] = system: cochlear cells of the inner ear of Ndufs4 knockout mice; experiment: RNA-Seq, pathway and ChIP-Atlas analysis of cochlear cells of Ndufs4 knockout mice; format: in vivo, mouse; conditions: oral, 50 mg/kg/day, 2 weeks
Method: Water-suspended Compound #5 was orally administered to Ndufs4 (NADH-ubiquinone oxidoreductase subunit 4) knockout mice (6 weeks old) at a dose of 50 mg/kg/day per kg of mouse weight for 2 weeks ([MA5 addition group], n=5).
In addition, water was orally administered to Ndufs4 knockout mice (6 weeks old) for 2 weeks ([Vehicle group], n=5).
RNA sequence (RNA-Seq) analysis was performed on cochlear cells of the inner ear of Ndufs4 knockout mice of [MA5 addition group] and [Vehicle group] described above, and genes whose expression levels changed (increased or decreased) in [MA5 addition group] as compared with [Vehicle group] were identified. Based on the names of the genes, pathway analysis was performed on genes whose expression has varied in the inner ear cells of the Ndufs4 knockout mice in [MA5 addition group].
The results of the names of the genes whose expression levels increased or decreased in the Ndufs4 knockout mice of [MA5 addition group] as compared with the Ndufs4 knockout mice of [Vehicle group] in the RNA sequence (RNA-Seq) analysis were used to perform integrated analysis with ChIP-Atlas to investigate transcription factors possibly related to these genes.

[3] = system: C57BL6 mice (12 weeks old); experiment: Treadmill running test of young mice; format: in vivo, mouse; conditions: oral, 2 months; for decrease in the running time on a treadmill: young C57BL6 mice (12 weeks old); for time to exhaustion: young C57BL6 mice, compared to Vehicle group
Method: Water-suspended Compound #5 was orally administered to C57BL6 mice (12 weeks old) at a dose of 50 mg/kg/day per kg of mouse weight for 2 months ([MA5 high dose addition group], n=5).
Water-suspended Compound #5 was orally administered to C57BL6 mice (12 weeks old) at a dose of 10 mg/kg/day per kg of mouse weight for 2 months ([MA5 low dose addition group], n=5).
In addition, water was orally administered to C57BL6 mice (12 weeks old) for 2 months ([Vehicle group], n=5).

[4] = system: various SIRTs (SIRT1, SIRT2, SIRT3, SIRT5, SIRT6, and SIRT7); experiment: Expression levels of various SIRTs in HEI-OC1 cells by Western blotting; format: cell-based, mouse; conditions: HEI-OC1 cell line, 1, 3, 10 or 30 μM, 24 hours, compared with absence of MA5 (0.1% DMSO)
Method: HEI-OC1 cells (mouse inner ear cell line) at 1×10^6 cell/dish were seeded and cultured in a dish containing 10 mL of a culture solution (low-glucose-containing DMEM medium (glucose concentration of 1.0 g/dL) to which 10 wt. % of FBS was added). After one day, 0.1% DMSO as a solvent of the compound or Compound #5 at various concentrations (1 μM, 3 μM, 10 μM, or 30 μM) was added, and the mixture was cultured for 24 hours ([Compound #5 addition group]). After completion of culture, the cells were collected, disrupted by a typical method, and the expression levels of various SIRTs (SIRT1, SIRT2, SIRT3, SIRT5, SIRT6, and SIRT7) in the cells were analyzed by Western blotting (see FIGS. 1-1 and 1-2).

[5] = system: NDUFS4 homozygous knockout mice (Ndufs4−/−mice); experiment: HE staining of brown adipose tissue of Ndufs4−/− mice; format: in vivo, mouse; conditions: 10 mg/day per kg, 50 days, compared with CMC administration group
Method: Compound #5 was administered to NDUFS4 homozygous knockout mice (Ndufs4−/−mice) (28 days old) at a dose of 10 mg/day per kg of mouse weight for 50 days ([Compound #5 administration group]).
In addition, CMC (carboxymethylcellulose) was administered to NDUFS4 homozygous knockout mice (Ndufs4−/−mice) at a dose of 10 mg/day per kg of mouse weight for 50 days ([CMC administration group; Control group]).
Since the NDUFS4 homozygous knockout mice are mice with abnormal mitochondrial function and the abnormal mitochondrial function is one of aging phenomena, the NDUFS4 homozygous knockout mice can be used as one type of aging model mice.

[6] = system: α-Klotho gene-deficient mice; experiment: Survival rate of α-Klotho gene-deficient mice (Kaplan-Meier); format: in vivo; conditions: oral, 10 mg/kg mouse weight/day from 28 days old until death
Method: Water-suspended Compound #5 was orally administered to α-Klotho gene-deficient mice (28 days old) as a premature aging animal model at a dose of 10 mg/kg mouse weight/day, the progress was observed until death, and the survival rate was evaluated from a survival curve based on the Kaplan-Meier method (Klotho homo KO mouse administration group, n=9).
In addition, water was orally administered to α-Klotho gene-deficient mice (28 days old) until death (Klotho homo KO mouse non-administered group, n=9).

[7] = system: NDUFS4 homozygous knockout mice (Ndufs4−/−mice); experiment: Electron microscopic observation of liver tissue (fatty liver) of Ndufs4−/− mice; format: in vivo; conditions: oral, 0.1 kg/day per mg of mouse weight, 24 days, vs Control 1 group (water)
From the text: Compound #5 was orally administered to NDUFS4 homozygous knockout mice (Ndufs4−/−mice) (4 weeks old) at a dose of 0.1 kg/day per mg of mouse weight for 24 days ([Compound #5 administration group]).
In addition, water was orally administered to NDUFS4 homozygous knockout mice (Ndufs4−/−mice) for 24 days ([DMSO group; Control 1 group]). Further, water was orally administered to wild-type mice for 24 days ([Control 2 group]).

`O=C(CC(C(=O)O)c1c[nH]c2ccccc12)c1ccc(F)cc1F` (stereo not drawn) [Compound #5, 4-(2,4-difluorophenyl)-2-(1H-indole-3-yl)-4-oxo-butanoic acid] was tested, and the “expression levels of genes related to differentiation, development, and the like of muscles such as Tbx1 Gene” value [1] was “increased”, the “transcription factors related to the genes whose expression increased (ChIP-Atlas)” value ([1]; Table 2) was “SUZ^12 and EZH2” and the “IGF1 signaling pathway (pathway analysis)” value [2] was “enhanced”. The “transcription factors related to genes whose expression increased (ChIP-Atlas)” value ([2]; Table 5) was “SOX2 and MYC, which are reprogramming factors necessary for the production of iPS cells, and POU2F1 (OCT1)”, the “decrease in the running time on a treadmill” value ([3]; 10 mg/kg/day (low dose)) was “inhibited” and the “decrease in the running time on a treadmill” value ([3]; 50 mg/kg/day (high dose)) was “inhibited”. The time to exhaustion ([3]; 10 mg/kg/day (low dose)) was “significantly improved”, the time to exhaustion ([3]; 50 mg/kg/day (high dose)) was “significantly improved” and the “expression levels of various SIRTs in the cells” value [4] was “increased”. The “size of lipid droplets in brown adipose tissue” value [5] was “decrease”, the survival rate [6] was “significantly increased” and the “fat deposition in hepatocytes (fatty liver)” value [7] was “clear reduction”.
